For experiment [1], the system named is A375 amelanotic melanoma cells. The experiment is described as follows: WST-1 cell viability assay, A375. To be noted: Homo sapiens, A-375, concentration range 1–100 µM. Type of experiment: cell-based. On the procedure: (§1) Human A375, C32 amelanotic and COLO829, G361 melanotic melanoma cells, purchased from ATCC (ATCC Manassas, VA, USA), were incubated in a humidified 5% CO2 incubator at 37 °C. The cells were cultured in the recommended medium supplemented with inactivated fetal bovine serum and the following antibiotics: penicillin (100 U/mL), neomycin (10 μg/mL) and amphotericin B (0.25 μg/mL). Treatment with the studied compounds (B6–B10) began 24 h after seeding. The analyzed compound solutions were obtained by diluting stock solutions in a culture medium. The analysis via WST-1 assay was used for compound concentrations ranging from 1 µM to 100 µM. Other studies, concerning the assessment of intracellular GSH levels and apoptosis, were performed on the B8 and B10 derivatives at concentrations of 50 μM and 100 µM.
(§2) The viability of cells was assessed using the cell proliferation reagent WST-1. The reagent is a tetrazolium salt (slightly red) that can be reduced in viable cells to formazan dye (dark red) by mitochondrial dehydrogenases. In the analysis, WST-1 was added to cells cultured in 96-well microplates (10 µL/well) 3 h before the measurement. Absorbance at 440 nm was read using a microplate reader (Infinite 200 PRO, TECAN, Männedorf, Switzerland), and 650 nm was used as the reference wavelength. In the experiment, control samples were normalized to 100%. All the examined samples were calculated as percentages of the control.

Experiment [2] relates to G361 melanotic melanoma cells. The experiment can be described thus: WST-1 cell viability assay, G361. Type of experiment: cell-based. To be noted: Homo sapiens, G-361, concentration range 1–100 µM. Here is the method: as §1, §2
Experiment [3] has as its system COLO829 melanotic melanoma cells. The experiment is described as follows: WST-1 cell viability assay, COLO829. Type of experiment: cell-based. To be noted: Homo sapiens, COLO-829, concentration range 1–100 µM. On the procedure: as §1, §2
On the technique in general: Formazan colour is commonly taken as a measure of viable cells.

In experiment [4] the test system is normal human fibroblasts (HDF). The experiment is described as follows: WST-1 cell viability assay, HDF. Type of experiment: cell-based. The following applies: for IC50: Homo sapiens, Fibroblast, concentration range 1–100 µM; for reduction in cell viability in comparison to the control: concentrations equal to and above 25 µM, all incubation time points. On the procedure:
[Worded in the source for another cell line; this cell line is reported under the same test.] as §1, §2

In experiment [5] the test system is C32 amelanotic melanoma cells. The experiment can be described thus: WST-1 cell viability assay, C32. To be noted: Homo sapiens, concentration range 1–100 µM. Type of experiment: cell-based. On the procedure:
as §1, §2

In another experiment the test system is COLO829 cells. Also on record: method as in PMID 31410885. The following applies: 50 µM, 72 h incubation; cited from earlier work.
Another experiment has as its system C32 cells. Also on record: method as in PMID 31432325. The following applies: 50 µM, 72 h incubation; cited from earlier work.
The subject of experiment [6] is G361 melanotic melanoma cells. The experiment is described as follows: Vitality assay, intracellular GSH level, G361. Type of experiment: cell-based, human. To be noted: 72 h. On the procedure: as §1
(§3) All the experiments were performed using the fluorescence image cytometer NucleoCounter® NC-3000™ (ChemoMetec, Lillerød, Denmark). For the vitality assay, treatment cells were stained with solution 5 according to the manufacturer’s protocol and analysis was conducted using NucleoView NC-3000 software 2.1.25.12 (ChemoMetec, Lillerød, Denmark) according to the vitality assay protocol.

Experiment [7] concerns C32 amelanotic melanoma cells. The experiment can be described thus: DNA fragmentation assay, C32. Type of experiment: cell-based, human. To be noted: 72 h. On the procedure: as §1
(§4) For the DNA fragmentation assay, cells were fixed with 70% cold ethanol (24 h at 0–4 °C). In the next step of the analysis, the cell samples were washed with PBS, centrifuged, and stained with solution 3 (ChemoMetec, Lillerød, Denmark) containing DAPI and 0.1% triton X-100 in PBS. The analysis was conducted according to the DNA fragmentation assay protocol.

Experiment [8] relates to G361 melanotic melanoma cells. The experiment is described as follows: Mitochondrial potential assay (JC-1), G361. Type of experiment: cell-based, human. To be noted: 72 h. Here is the method:
as §1
(§5) The mitochondrial potential assay was conducted using fluorescent cationic dye JC-1, which accumulates in the mitochondria in a potential-dependent manner. After cell treatment, samples were suspended in 12.5 µL of solution 7 (JC-1) (ChemoMetec, Lillerød, Denmark) and then incubated at 37 C for 10 min. In the next step, the […] cells were centrifuged for 5 min at 400× g, washed twice with PBS and resuspended in 0.25 mL of solution 8 (DAPI) (ChemoMetec, Lillerød, Denmark). In the last step of sample preparation, cells were loaded into 8-chamber NC-Slides A8™ and analyzed immediately using the mitochondrial potential assay protocol. Scatterplots of the obtained results were used to demarcate the percentage of cells with a different mitochondrial membrane potential.

Experiment [9] concerns C32 amelanotic melanoma cells. The experiment can be described thus: Vitality assay, intracellular GSH level, C32. Type of experiment: cell-based, human. The following applies: 72 h. On the procedure: as §1, §3
Experiment [10] has as its system G361 melanotic melanoma cells. The experiment can be described thus: DNA fragmentation assay, G361. Type of experiment: cell-based, human. To be noted: G361, 100 µM, 72 h. On the procedure: as §1, §4
Experiment [11] has as its system C32 amelanotic melanoma cells. The experiment can be described thus: Mitochondrial potential assay (JC-1), C32. Type of experiment: cell-based, human. The following applies: 72 h. On the procedure:
as §1, §5

Broadly, the IC50 is the point on the concentration scale where inhibition reaches its midpoint. Lower therefore signals higher potency.

Turning to `C#CCN1c2cccnc2Sc2cc(C)cnc21` [B9, 3-methyl-10-propargyl-1,6-diazaphenothiazine], the IC50 in experiment [1] (A375, 24 h exposure) stood at 698 µM; in [1] (A375, 48 h exposure), 171 µM; in [1] (A375, 72 h exposure) it was 138 µM; in experiment [2] (G361, 24 h exposure), 116 µM; in experiment [2] (G361, 48 h exposure), 97 µM; in experiment [2] (G361, 72 h exposure), 57 µM. Moreover, the IC50 in experiment [3] (COLO829, 24 h exposure) was 136 µM; in experiment [3] (COLO829, 48 h exposure), 61.5 µM; in experiment [3] (COLO829, 72 h exposure) it was 49.5 µM; in experiment [4] (24 h exposure) it was 57.4 µM; in experiment [4] (48 h exposure) it was 22.2 µM; in [4] (72 h exposure), 11.3 µM. Moreover, the 50% inhibitory concentration (IC50) in experiment [5] (C32, 24 h exposure) was 120 µM; in [5] (C32, 48 h exposure), 167 µM; in experiment [5] (C32, 72 h exposure), 66.4 µM. The “reduction in cell viability in comparison to the control” value (from here on “reduction in cell viability”) in experiment [4] is reported as over 20%.
As for `CN(C)/N=N/c1[nH]cnc1C(N)=O` [dacarbazine], the “maximum reduction in COLO829 cell viability” value with COLO829 cells is “about 25%”. For the same compound, the “reduction in C32 cell viability (the analyzed parameter)” value with C32 cells is reported as “about 50%”.
As to `C=CCN1c2cccnc2Sc2cc(C)cnc21` [B8, 3-metyhl-10-allyl-1,6-diazaphenothiazine], the “cells with low GSH levels (Q1ll, GSH-depleted cells)” value in experiment [6] (G361, 50 µM) is 21%; in experiment [6] (G361, 100 µM), 33%; in [9] (C32, 50 µM), 20%; in experiment [9] (C32, 100 µM), 36%. Moreover, the “cells with fragmented DNA (M1)” value was 11% in experiment [7] (C32, 50 µM); 22% in experiment [7] (C32, 100 µM); 12% in experiment [10]. In addition, the IC50 in experiment [1] (A375, 24 h exposure) amounted to 393 µM; in experiment [1] (A375, 48 h exposure), 166 µM; in experiment [1] (A375, 72 h exposure), 91.2 µM; in [2] (G361, 24 h exposure), 168 µM; in [2] (G361, 48 h exposure), 79.9 µM; in [2] (G361, 72 h exposure) it was 24.6 µM. Also, the IC50 in experiment [3] (COLO829, 24 h exposure) is 220 µM; in [3] (COLO829, 48 h exposure), 64.1 µM; in experiment [3] (COLO829, 72 h exposure) it was 31.4 µM; in experiment [4] (48 h exposure), 142 µM; in experiment [4] (72 h exposure), 125 µM; in experiment [5] (C32, 24 h exposure), 129 µM. Further, the IC50 in experiment [5] (C32, 48 h exposure) worked out at 105 µM; in experiment [5] (C32, 72 h exposure), 59.6 µM. Moreover, the “depolarized (early apoptotic) cells (Q1lr)” value stood at 13% in experiment [8] (G361, 50 µM) and 26% in experiment [8] (G361, 100 µM). The “depolarized cells, decreased mitochondrial membrane potential (Q1lr)” value in experiment [11] (C32, 50 µM) came out at 18%; in [11] (C32, 100 µM) it was 25%. For the same compound, in [4] (75 µM and 100 µM, 48 h and 72 h of incubation), the “viability reduction in comparison to the control” value was over 20%.
On to `Cc1cnc2c(c1)Sc1ncccc1N2C` [B7, 3,10-dimethyl-1,6-diazaphenothiazine], for which the concentration for half-maximal inhibition (IC50) in experiment [1] (A375, 24 h exposure) was determined as 235 µM; in experiment [1] (A375, 48 h exposure), 99.5 µM; in experiment [1] (A375, 72 h exposure) it was 17.6 µM; in [2] (G361, 24 h exposure), 194 µM; in experiment [2] (G361, 48 h exposure), 75.4 µM; in [2] (G361, 72 h exposure), 41.6 µM. In addition, the 50% inhibitory concentration (IC50) in [3] (COLO829, 24 h exposure) was 292 µM; in [3] (COLO829, 48 h exposure) it was 64.8 µM; in experiment [3] (COLO829, 72 h exposure), 35.5 µM; in experiment [4] (24 h exposure) it was 55.4 µM; in experiment [4] (48 h exposure), 31.7 µM; in experiment [4] (72 h exposure), 30.5 µM. The concentration for half-maximal inhibition (IC50) in [5] (C32, 24 h exposure) was 91.4 µM; in experiment [5] (C32, 48 h exposure), 89.7 µM; in [5] (C32, 72 h exposure), 22.2 µM. Moreover, the “reduction in cell viability” value in [4] was over 20%.
As for `Cc1cnc2c(c1)Sc1ncccc1N2` [B6, 10H-3-methyl-1,6-diazaphenothiazine], the concentration for half-maximal inhibition (IC50) came to 226 µM in experiment [1] (A375, 24 h exposure); 97.9 µM in experiment [1] (A375, 48 h exposure); 40 µM in [1] (A375, 72 h exposure); 134 µM in experiment [2] (G361, 24 h exposure); 56.2 µM in experiment [2] (G361, 48 h exposure); 22.9 µM in [2] (G361, 72 h exposure). Also, the half-inhibitory concentration (IC50) in experiment [3] (COLO829, 24 h exposure) was determined as 262 µM; in experiment [3] (COLO829, 48 h exposure), 59 µM; in [3] (COLO829, 72 h exposure) it was 30.2 µM; in [4] (24 h exposure), 83.1 µM; in experiment [4] (48 h exposure), 40.1 µM; in experiment [4] (72 h exposure) it was 31.9 µM. Also, the IC50 was 94.3 µM in experiment [5] (C32, 24 h exposure); 76.1 µM in [5] (C32, 48 h exposure); 18.1 µM in [5] (C32, 72 h exposure). In addition, the “reduction in cell viability” value in experiment [4] is reported as over 20%.
On to `Cc1cnc2c(c1)Sc1ncccc1N2Cc1ccccc1` [B10, 3-methyl-10-benzyl-1,6-diazaphenothiazine], for which the “cells with low GSH levels (Q1ll, GSH-depleted cells)” value in experiment [6] (G361, 50 µM) is 13%; in experiment [6] (G361, 100 µM), 25%; in [9] (C32, 50 µM), 12%; in experiment [9] (C32, 100 µM) it was 22%. In addition, the “cells with fragmented DNA (M1)” value in experiment [7] (C32, 100 µM) was 10%; in experiment [10], 10%. For the same compound, the IC50 in experiment [1] (A375, 24 h exposure) turned out to be 511 µM; in experiment [1] (A375, 48 h exposure), 109 µM; in [1] (A375, 72 h exposure), 60.4 µM; in [2] (G361, 24 h exposure) it was 132 µM; in experiment [2] (G361, 48 h exposure) it was 100 µM; in experiment [2] (G361, 72 h exposure), 43 µM. Also, the IC50 in experiment [3] (COLO829, 24 h exposure) is 178 µM; in experiment [3] (COLO829, 48 h exposure), 75.5 µM; in experiment [3] (COLO829, 72 h exposure) it was 37 µM; in experiment [4] (24 h exposure), 1930 µM; in experiment [4] (48 h exposure), 932 µM; in [4] (72 h exposure), 656 µM. Also, the concentration for half-maximal inhibition (IC50) in [5] (C32, 24 h exposure) was 95.8 µM; in experiment [5] (C32, 48 h exposure), 87 µM; in experiment [5] (C32, 72 h exposure) it was 42.7 µM. For the same compound, the “depolarized (early apoptotic) cells (Q1lr)” value in experiment [8] (G361, 50 µM) is listed as 6%; in experiment [8] (G361, 100 µM), 17%. Besides, the “depolarized cells, decreased mitochondrial membrane potential (Q1lr)” value in experiment [11] (C32, 50 µM) worked out at 15%; in [11] (C32, 100 µM), 21%. Moreover, the “decrease of viability of cells” value in experiment [4] (at any measurement point (1–100 µM; 24 h, 48 h, 72 h)) is recorded as at most 10%.

The record behind these values is PMC12250835, “Novel 3-Methyl-1,6-Diazaphenothiazine as an Anticancer Agent—Synthesis, Structure, and In Vitro Anticancer Evaluation” (Molecules, 2025).
